Consider three molecules from PMC12184311 (2025).

For experiment [1], the system named is 3WJ (DNA, junction) CGGAACGGCACTCG/CGAGTGCAGCGTGG/CCACGCTCGTTCCG
Description: PAGE. The settings on record: Na+ 50 mM (NaCl), 1X TB, 37 °C 1 h incubation.

Experiment [2] relates to 4WJ-18 (DNA, junction) GCTAGCTGATACGCTACG/CGTAGCGTACGTTGGTGC/GCACCAACGCGTCACTCC/GGAGTGACGTCAGCTAGC
Description: PAGE. The settings on record: Na+ 50 mM (NaCl); 1X TB, 37 °C 1 h incubation; 0.25 to 5 equiv; compound induces junction assembly.

Experiment [3] relates to FAM-labelled 4WJ-18 (DNA, junction) GCTAGCTGATACGCTACG/CGTAGCGTACGTTGGTGC/GCACCAACGCGTCACTCC/GGAGTGACGTCAGCTAGC
Description: PAGE competition, FAM fluorescence. The note with it: Na+ 50 mM (NaCl); 1X TB, 37 °C 1 h; 1 equivalent Pt-BIMA; competitor unlabelled 4WJ-18, Y fork, dsDNA, 3WJ.

Experiment [4] concerns 4WJ-22 (DNA, junction) GCCTAGCATGATACTGCTACCG/CGGTAGCAGTACCGTTGGTGGC/GCCACCAACGGCGTCAACTGCC/GGCAGTTGACGTCATGCTAGGC
Description: PAGE gel shift. The settings on record: Na+ 50 mM (NaCl); 1X TB. For orientation: A gel shift assay detects complexes by their altered migration in electrophoresis.

For the molecule `C(=Nc1ccc(Cc2ccc(N=Cc3ccccn3)cc2)cc1)c1ccccn1.C(=Nc1ccc(Cc2ccc(N=Cc3ccccn3)cc2)cc1)c1ccccn1.C(=Nc1ccc(Cc2ccc(N=Cc3ccccn3)cc2)cc1)c1ccccn1.[Ni+2].[Ni+2]`, in experiment [1] (control lane), the binding entry is “yes”.

Regarding `[Pd+2].[Pd+2].c1ccc2c(c1)ncn2Cc1c2ccccc2c(Cn2cnc3ccccc32)c2ccccc12.c1ccc2c(c1)ncn2Cc1c2ccccc2c(Cn2cnc3ccccc32)c2ccccc12.c1ccc2c(c1)ncn2Cc1c2ccccc2c(Cn2cnc3ccccc32)c2ccccc12.c1ccc2c(c1)ncn2Cc1c2ccccc2c(Cn2cnc3ccccc32)c2ccccc12`, the binding entry in experiment [2] and in experiment [1] (0.25 to 5 equiv) was “yes” each time.

Regarding `[Pt+2].[Pt+2].c1ccc2c(c1)ncn2Cc1c2ccccc2c(Cn2cnc3ccccc32)c2ccccc12.c1ccc2c(c1)ncn2Cc1c2ccccc2c(Cn2cnc3ccccc32)c2ccccc12.c1ccc2c(c1)ncn2Cc1c2ccccc2c(Cn2cnc3ccccc32)c2ccccc12.c1ccc2c(c1)ncn2Cc1c2ccccc2c(Cn2cnc3ccccc32)c2ccccc12`, the binding entry in experiment [2], in experiment [1] (0.25 to 5 equiv), in experiment [3] and in experiment [4] was “yes” throughout.
